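Test compounds were applied to cells in 96-well plates for 48 hours at 5 doses. Abbreviation: GI50, concentration required for 50% inhibition of growth.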 Activity calls are given as the source filed them. No stated cut-off is given here; in the data, active = GI50 up to about 1.1 µM and inactive = higher.
Legend:
Assay in all cases: growth of human tumour cells (NCI), 48 h
SF-295 = system: SF-295
HCT-116 = system: HCT-116
LXFL 529 = system: LXFL 529
NCI-H522 = system: NCI-H522
786-0 = system: 786-0
IGROV-1 = system: IGROV-1
DMS-114 = system: DMS-114
CCRF-CEM = system: CCRF-CEM
M19-MEL = system: M19-MEL
UO-31 = system: UO-31
SNB-19 = system: SNB-19
KM-20L2 = system: KM-20L2
OVCAR-8 = system: OVCAR-8

SMILES | GI50 (SF-295) | GI50 (HCT-116) | GI50 (LXFL 529) | GI50 (NCI-H522) | GI50 (786-0) | GI50 (IGROV-1) | GI50 (DMS-114) | GI50 (CCRF-CEM) | GI50 (M19-MEL) | GI50 (UO-31) | GI50 (SNB-19) | GI50 (KM-20L2) | GI50 (OVCAR-8)
O=C(OCCO)C1CC2CC1C1(C2)OCCO1 (stereo unspecified) | > 100 µM (inactive) | > 100 µM (inactive) | > 100 µM (inactive) | > 100 µM (inactive) | > 100 µM (inactive) | > 100 µM (inactive) | > 100 µM (inactive) | > 100 µM (inactive) | > 100 µM (inactive) | > 100 µM (inactive) | > 100 µM (inactive) | > 100 µM (inactive) | > 100 µM (inactive)
CCN(CC)Cc1cc(Nc2c3ccccc3nc3c2[nH]c2ccccc23)ccc1O | 1.37 µM (inactive) | 0.345 µM (active) | 1.39 µM (inactive) | 1.13 µM (inactive) | 1.13 µM (inactive) | 1.16 µM (inactive) | 1.64 µM (inactive) |  | 1.63 µM (inactive) | 1.52 µM (inactive) | 1.63 µM (inactive) | 0.867 µM (active) | 1.08 µM (active)
c1ccc([P+](Cc2csnn2)(c2ccccc2)c2ccccc2)cc1 | > 100 µM (inactive) | > 100 µM (inactive) | > 100 µM (inactive) | > 100 µM (inactive) |  | > 100 µM (inactive) | 64 µM (inactive) | > 100 µM (inactive) | > 100 µM (inactive) | > 100 µM (inactive) | > 100 µM (inactive) | > 100 µM (inactive) | > 100 µM (inactive)
O=C1C(Cl)N(c2ccc([N+](=O)[O-])cc2)C1c1c[nH]c2ccccc12 (stereo unspecified) | > 100 µM (inactive) | 55.5 µM (inactive) | 36.2 µM (inactive) | 56.8 µM (inactive) |  | 77.6 µM (inactive) | 38 µM (inactive) | 9.25 µM (inactive) | > 100 µM (inactive) | 38.3 µM (inactive) | > 100 µM (inactive) | 41.2 µM (inactive) | > 100 µM (inactive)
Cc1nc2c(n1C)C(=O)c1nc(CBr)[nH]c(=O)c1C2=O | 0.938 µM (active) | > 100 µM (inactive) | > 100 µM (inactive) | > 100 µM (inactive) |  | > 100 µM (inactive) | 75.9 µM (inactive) | > 100 µM (inactive) | > 100 µM (inactive) | > 100 µM (inactive) | > 100 µM (inactive) | > 100 µM (inactive) | > 100 µM (inactive)
CC(=O)Oc1ccccc1C(=O)C1c2cccc(O)c2C(=O)c2c(O)cccc21 | 0.682 µM (active) | 0.897 µM (active) | 1.29 µM (inactive) | 0.479 µM (active) | 1.67 µM (inactive) | 0.986 µM (active) | 0.366 µM (active) | 0.306 µM (active) | 1.01 µM (active) | 0.741 µM (active) | 0.416 µM (active) | 2.4 µM (inactive) | 1.23 µM (inactive)
COC(=O)C1=C(C)C(=O)[C@H]2C(C(=O)OC)CCCC[C@@H]12 (stereo partly specified) | > 100 µM (inactive) | 83.9 µM (inactive) | > 100 µM (inactive) | 29.4 µM (inactive) | > 100 µM (inactive) | > 100 µM (inactive) | 20.9 µM (inactive) | 40.5 µM (inactive) | > 100 µM (inactive) | > 100 µM (inactive) | > 100 µM (inactive) | > 100 µM (inactive) | > 100 µM (inactive)
CC1(Cl)CC2C(CC1Sc1nnnn1-c1ccccc1)C2(C)C (stereo unspecified) | 40.8 µM (inactive) | 69.8 µM (inactive) | 60.3 µM (inactive) |  |  | > 100 µM (inactive) | 45.9 µM (inactive) | 36.7 µM (inactive) | > 100 µM (inactive) | 37.5 µM (inactive) | 83.2 µM (inactive) | 95.5 µM (inactive) | > 100 µM (inactive)
c1ccc2c(NCCCCCCCCNc3cccc4ccccc34)cccc2c1 | > 100 µM (inactive) | 19.8 µM (inactive) | 18.6 µM (inactive) | 16.4 µM (inactive) | 23.4 µM (inactive) | 49.8 µM (inactive) | 25.6 µM (inactive) | 14.6 µM (inactive) | > 10 µM (inactive) | 26.2 µM (inactive) | > 100 µM (inactive) | 25.2 µM (inactive) | 24.5 µM (inactive)
COc1c(O)c(C=O)c2c(O)c(-c3c(C)cc4c(C(C)C)c(OC)c(O)c(C=O)c4c3O)c(C)cc2c1C(C)C [6,6'-METHOXYGOSSYPOL] | 4.19 µM (inactive) | 2.61 µM (inactive) | 3.96 µM (inactive) | 2.62 µM (inactive) |  | 5.47 µM (inactive) | 3.08 µM (inactive) | 5.16 µM (inactive) | 3.65 µM (inactive) | 3.3 µM (inactive) | 3.88 µM (inactive) | 6.01 µM (inactive) | 3.74 µM (inactive)
COc1cccc(NC(=O)CC(=O)NN2C(=O)/C(=C/c3ccc(N(CCC#N)CCC#N)cc3)N=C2c2cc([N+](=O)[O-])ccc2Cl)c1 | 87.1 µM (inactive) | > 100 µM (inactive) | 40.7 µM (inactive) | 43.9 µM (inactive) |  | > 100 µM (inactive) | 31 µM (inactive) | 0.499 µM (active) | > 100 µM (inactive) | > 100 µM (inactive) | > 100 µM (inactive) | 25.8 µM (inactive) | 45.8 µM (inactive)
[N-]=[N+]=NC(c1cn(C2CC(O)C(CO)O2)c(=O)[nH]c1=O)C(Br)Br (stereo unspecified) | > 100 µM (inactive) | > 100 µM (inactive) | > 100 µM (inactive) | > 100 µM (inactive) | > 100 µM (inactive) | > 100 µM (inactive) | > 100 µM (inactive) | > 100 µM (inactive) | > 100 µM (inactive) | > 100 µM (inactive) | > 100 µM (inactive) | > 100 µM (inactive) | > 100 µM (inactive)
C=C1C2=C(CCCC2)C(=O)OC12CCCCC2 | 57.7 µM (inactive) | 47.1 µM (inactive) | 40.7 µM (inactive) | 35.5 µM (inactive) | > 100 µM (inactive) | 88.9 µM (inactive) | 29.5 µM (inactive) | 51.4 µM (inactive) | 46.5 µM (inactive) | 35.1 µM (inactive) | > 100 µM (inactive) | > 100 µM (inactive) | > 100 µM (inactive)
Cc1ccc(SSCCCCCS(=O)O)cc1 |  | 14.6 µM (inactive) | 14.6 µM (inactive) | 14.6 µM (inactive) |  |  | 21 µM (inactive) | 4.68 µM (inactive) | 37.6 µM (inactive) | 19.9 µM (inactive) | 35.4 µM (inactive) |  | 
COc1ccccc1NC(=O)C(=O)C(C(=O)c1ccccc1F)C1OC(=O)c2ccccc21 (stereo unspecified) | 43.1 µM (inactive) | 22 µM (inactive) | 24.9 µM (inactive) | 16.9 µM (inactive) |  | 52.6 µM (inactive) | 23.1 µM (inactive) | 16.1 µM (inactive) | 15.8 µM (inactive) | 32.4 µM (inactive) | 19.3 µM (inactive) | 24.9 µM (inactive) | 19.9 µM (inactive)

— ChEMBL document CHEMBL1201862, “PubChem BioAssay data set” (2004)
